Here are results for 10 compounds from patent publication US10023593B2, “ALK kinase inhibitor, and preparation method and uses thereof” (BEIJING PEARL BIOTECHNOLOGY LIMITED LIABILITY COMPANY, priority 2014, dated 2018).

For assay [1], the target named is T1, L1196M mutant ALK kinase (Homo sapiens, UniProt Q9UM73, L1196M).
T1 construct: purchased Sino-US Crown Bioscience, Inc. batch number ALKm_20110923
Put plainly: HTRF KinEASE-TK assay, inhibitory activity on L1196M mutant ALK kinase. The class given is biochemical. As to conditions: L1196M mutant ALK 1 ng/μl, substrate 1 μM, ATP 5 μM, 30° C. 35 minutes, read-out: Inhibition on ALK kinases (L1196M mutant), IC50. From the text: 2. Inhibitory Activities of the Compounds of the Present Invention on L1196M Mutant ALK Kinases
? experimental method ? HTRF KinEASE™-TK Assay kit from Cisbio company was used to detect inhibitory activities of the compounds on L1196M mutant ALK kinases.
(§1) ? instrument ? Envision 2104 plate reader from PerKinElmer company.
? experiment material ? HTRF KinEASE™-TK Assay Kit (Cisbio company, catalog No. 62TK0PEC); L1196M mutant ALK kinase (produced by Sino-US Crown Bioscience, Inc., batch number ALKm_20110923); DTT (Gibco BRL company, catalog No. 15508-012); MgCl2 (Sigma Aldrich company, catalog No. M-2670); ATP (Sigma Aldrich company, catalog No. A-7699, batch number 051M7014V); DMSO (AMRESCO company, catalog No. 0231); EDTA (AMRESCO company, catalog No. 0105); 96 wells plates (for diluting compounds) (CITOTEST company, catalog No. Ref36020096D); OptiPlate™-384 (White), PerkinElmer company, catalog No. P12-004)
(§2) ? experimental condition ? Compounds (the final concentration of DMSO was 1%), the reaction substrate (the final concentration was 1 μM), ATP (the final concentration was 5 μM), and L1196M mutant ALK kinases (the final concentration was 1 ng/μl) were mixed respectively in a final volume of 10 μl reaction system (containing 5 mM MgCl2, 1× Kinase buffer, and 1 mM DTT). The mixture was reacted at 30° C. for 35 minutes after shaking for 30 seconds. After completion of the reaction, each well was added with 5 μl Sa-XL665 and 5 μl TK Antibody-Eu(K), and placed in the dark for 60 minutes to end the reaction after uniform mixing. The data was read from PerkinElmer EnVision plate reader ([…]), the 665/615 ratio was calculated, and the data was analyzed.
(§3) ? tested samples ? Compounds from the examples.
(§4) ? data analysis ? Minimum 665/615 ratio (Rmin, 665/615 ratio under the condition that 10.4 μM positive control drug LDK-378 was added)
(§5) Maximum 665/615 ratio (Rmax, 665/615 ratio under the condition that no compound was added)
(§6) Tested 665/615 ratio (Rcompound, 665/615 ratio under the condition that a given concentration of compound was added) Inhibition rate (%)=[1−(Rcompound−Rmin)/(Rmax−Rmin)]×100
(§7) ? data processing ? IC50 of compounds was calculated by using XLfit program in Excel.
(In general: TR-FRET usually uses a lanthanide donor and a delayed reading to cut background.)

The target of assay [2] is cytochrome P450 2C19 (Homo sapiens, UniProt P33261). In words: Inhibitory activity on cytochrome P450 2C19. The class given is in vitro ADME. As to conditions: no significant inhibition.
In assay [3] the target is T2, cytochrome P450 1A2 (Homo sapiens, UniProt P05177).
T2 sequence (P05177 1-516): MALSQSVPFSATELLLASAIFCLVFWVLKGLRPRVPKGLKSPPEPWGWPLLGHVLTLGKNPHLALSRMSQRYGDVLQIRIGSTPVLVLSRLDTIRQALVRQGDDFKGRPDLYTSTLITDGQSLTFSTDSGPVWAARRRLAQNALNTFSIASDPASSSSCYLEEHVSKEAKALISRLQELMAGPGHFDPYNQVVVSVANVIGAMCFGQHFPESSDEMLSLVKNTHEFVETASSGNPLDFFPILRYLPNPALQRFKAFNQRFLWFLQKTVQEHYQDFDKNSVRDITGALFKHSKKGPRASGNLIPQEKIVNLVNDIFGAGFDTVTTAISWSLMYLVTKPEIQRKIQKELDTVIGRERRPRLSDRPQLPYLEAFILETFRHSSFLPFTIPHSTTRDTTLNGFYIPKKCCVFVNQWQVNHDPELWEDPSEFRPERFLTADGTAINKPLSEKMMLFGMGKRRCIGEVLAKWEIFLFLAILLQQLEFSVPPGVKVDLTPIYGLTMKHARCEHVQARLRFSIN
In words: Inhibitory activity on cytochrome P450 1A2. In kind it is in vitro ADME. The settings on record: no significant inhibition.

The target of assay [4] is cytochrome P450 2D6 (Homo sapiens, UniProt P10635). In words: Inhibitory activity on cytochrome P450 2D6. The class given is in vitro ADME. As to conditions: no significant inhibition.
Assay [5] concerns the target T3, Wild Type ALK kinase (Homo sapiens, UniProt Q9UM73).
T3 construct: purchased Sino-US Crown Bioscience, Inc. batch number ALK 20110607
In words: HTRF KinEASE-TK assay, inhibitory activity on wild type ALK kinase. The class given is biochemical. As to conditions: wild type ALK 1 ng/μl, substrate 1 μM, 30° C. 35 minutes, read-out: Inhibition on ALK kinases (wildtype), IC50.
From the text: 1. Inhibitory Activities of the Compounds of the Present Invention on Wild Type ALK Kinases
? experimental method ? HTRF KinEASE™-TK Assay kit from Cisbio company was used to detect inhibitory activities of the compounds on wildtype ALK kinases (wild type ALK kinases).
as §1
? experiment material ? HTRF KinEASE™-TK Assay Kit (Cisbio company, catalog No. 62TK0PEC); Wild Type ALK kinase (produced by Sino-US Crown Bioscience, Inc., batch number ALK 20110607); DTT (Gibco BRL company, catalog No. 15508-012); MgCl2 (Sigma Aldrich company, catalog No. M-2670); ATP (Sigma Aldrich company, catalog No. A-7699); DMSO (AMRESCO company, catalog No. 0231); EDTA (AMRESCO company, catalog No. 0105); 96 wells plates (for diluting compounds) (CITOTEST company, catalog No. Ref36020096D); OptiPlate™-384 (White), PerkinElmer company, catalog No. P12-004)
as §2, with “[…]),” for “5 μM),”, “Wildtype” for “L1196M mutant”
as §3, §4, §5, §6, §7

For assay [6], the target named is cytochrome P450 2C9 (Homo sapiens, UniProt P11712). Put plainly: Inhibitory activity on cytochrome P450 2C9. In kind it is in vitro ADME. As to conditions: no significant inhibition.
In assay [7] the target is cytochrome P450 3A4 (Homo sapiens, UniProt P08684). Put plainly: Inhibitory activity on cytochrome P450 3A4. The class given is in vitro ADME. The settings on record: no significant inhibition.
In assay [8] the test system is NCI-H2228 cell line. Put plainly: CellTiter-Glo cell proliferation inhibition on NCI-H2228 cell line. The class given is cell-based. As to conditions: Homo sapiens, NCI-H2228, 96 h, NCI-H2228 cells, 5000 cells/well, 4 days drug treatment. The essentials: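 NCI-H2228 cells, 5000/well in RPMI-1640 + 10% FBS, treated with compounds 2 h after seeding (0.5% DMSO final) for 4 days at 37° C. Viability by CellTiter-Glo luminescence; inhibition relative to DMSO control, IC50 from curve fit.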
In general terms: ATP-based viability assays read luminescence as a measure of living cells.

In assay [9] the test system is Karpas-299 cell line. In words: CellTiter-Glo cell proliferation inhibition on Karpas-299 cell line. In kind it is cell-based. The settings on record: Homo sapiens, 96 h, Karpas-299 cells, 5000 cells/well, 4 days drug treatment. The method, then:
4. Cell Proliferation Inhibitory Activities of the Compounds of the Present Invention on Karpas-299 Cell Line
? experimental method ? CellTiter-Glo® Luminescent Cell Viability Assay kit from Promega company was used to detect cell proliferation inhibitory activities of the compounds on Karpas-299 cell line.
? instrument ? Envision 2104 plate reader from PerKinElmer company; Vi-Cell XR cell counter from Beckman Counter company; MCO-18AIC CO2 incubator from SANYO company.
? experiment material ? CellTiter-Glo® Luminescent Cell Viability Assay Kit (Promega company, catalog No. G7573); Karpas-299 cell line (DSMZ, catalog No. ACC31); RPMI-1640 medium (HyClone company, catalog No. SH30809.01B); fetal bovine serum (FBS) (Gibco company, catalog No. 10099-141); PBS (HyClone company, catalog No. SH30256.01B); 96 wells cell culture plate (Corning company, catalog No. 3610); DMSO (AMRESCO company, catalog No. 0231); 96 wells plates (for diluting compounds) (CITOTEST company, catalog No. Ref36020096D);
? experimental condition ? Karpas-299 cells in exponential growth phase were collected and viable cells were counted by Vi-Cell XR cell counter. Cell suspension was adjusted to 62500 cells/ml with culture medium (RPMI-1640+10% FBS). 80 μl cell suspension was added into each well of 96 wells cell culture plate so that so that the final cell number of Karpas-299 cells was 5000 cells/well. The cells were cultivated in an incubator with an atmosphere of 37° C., 5% CO2 and 95% humidity for 2 hours and then each well was added with 20 μl compounds in RPMI-1640 medium solution (the final concentration of DMSO was 0.5%). 4 days after drug treatment, each well was added with 50 μl CellTiter-Glo solution which was previously thawed and equilibrated to room temperature, and mixed for 2 minutes with microplate shaker. After placing at room temperature for 10 minutes, luminescence reading value was measured with PerkinElmer Envision 2104 plate reader and the data was analyzed.
? tested samples ? Compounds of the examples.
Luminescence value of DMSO solvent control (Vvehicle control, which is the mean luminescence value from DMSO solvent control group)
Tested luminescence value (Vsample, which is the luminescence value from given concentration of compounds group) Inhibition rate (%)=(1−Vsample/Vvehicle control)×100
as §7

Sequence of cytochrome P450 2D6 (P10635 whole entry): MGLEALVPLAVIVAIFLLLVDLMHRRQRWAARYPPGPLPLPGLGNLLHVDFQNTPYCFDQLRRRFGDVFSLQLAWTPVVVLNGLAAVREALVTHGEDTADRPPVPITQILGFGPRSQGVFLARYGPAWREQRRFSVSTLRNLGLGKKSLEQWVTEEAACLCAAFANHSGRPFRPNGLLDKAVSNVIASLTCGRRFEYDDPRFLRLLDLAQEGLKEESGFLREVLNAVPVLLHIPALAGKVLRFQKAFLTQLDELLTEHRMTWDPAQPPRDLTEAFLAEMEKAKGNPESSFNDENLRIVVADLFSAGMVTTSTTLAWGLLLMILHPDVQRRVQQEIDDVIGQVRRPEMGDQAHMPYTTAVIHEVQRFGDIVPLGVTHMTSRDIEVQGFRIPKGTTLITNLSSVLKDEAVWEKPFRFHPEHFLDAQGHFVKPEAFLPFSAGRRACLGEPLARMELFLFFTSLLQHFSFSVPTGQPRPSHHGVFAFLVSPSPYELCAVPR
Sequence of cytochrome P450 2C9 (P11712 whole entry): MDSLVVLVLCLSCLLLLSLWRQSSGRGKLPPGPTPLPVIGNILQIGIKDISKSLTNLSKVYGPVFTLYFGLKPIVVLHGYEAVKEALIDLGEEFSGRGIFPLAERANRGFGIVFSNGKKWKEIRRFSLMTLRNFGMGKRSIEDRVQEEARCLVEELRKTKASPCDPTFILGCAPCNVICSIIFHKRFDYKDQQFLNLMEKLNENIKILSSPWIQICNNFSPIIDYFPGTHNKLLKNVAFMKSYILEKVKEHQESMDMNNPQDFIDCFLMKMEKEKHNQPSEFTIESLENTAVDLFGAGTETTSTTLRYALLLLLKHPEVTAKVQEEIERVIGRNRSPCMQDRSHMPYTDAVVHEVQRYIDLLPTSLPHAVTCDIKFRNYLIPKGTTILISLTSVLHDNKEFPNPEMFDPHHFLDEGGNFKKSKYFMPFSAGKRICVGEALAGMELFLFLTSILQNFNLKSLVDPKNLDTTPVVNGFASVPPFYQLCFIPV
Sequence of cytochrome P450 2C19 (P33261 whole entry): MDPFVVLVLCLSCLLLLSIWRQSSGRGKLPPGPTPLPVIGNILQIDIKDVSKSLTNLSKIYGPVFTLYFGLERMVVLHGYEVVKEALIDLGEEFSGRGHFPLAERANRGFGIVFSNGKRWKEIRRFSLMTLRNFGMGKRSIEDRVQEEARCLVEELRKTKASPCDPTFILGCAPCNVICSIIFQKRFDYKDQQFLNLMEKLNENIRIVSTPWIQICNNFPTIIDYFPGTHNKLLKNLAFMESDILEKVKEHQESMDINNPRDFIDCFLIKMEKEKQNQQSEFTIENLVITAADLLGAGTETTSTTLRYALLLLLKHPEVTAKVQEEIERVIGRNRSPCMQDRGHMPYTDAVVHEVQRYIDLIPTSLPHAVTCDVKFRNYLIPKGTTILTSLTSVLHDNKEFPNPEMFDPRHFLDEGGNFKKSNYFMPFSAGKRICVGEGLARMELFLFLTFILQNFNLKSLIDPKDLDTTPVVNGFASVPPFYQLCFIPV
Sequence of cytochrome P450 3A4 (P08684 whole entry): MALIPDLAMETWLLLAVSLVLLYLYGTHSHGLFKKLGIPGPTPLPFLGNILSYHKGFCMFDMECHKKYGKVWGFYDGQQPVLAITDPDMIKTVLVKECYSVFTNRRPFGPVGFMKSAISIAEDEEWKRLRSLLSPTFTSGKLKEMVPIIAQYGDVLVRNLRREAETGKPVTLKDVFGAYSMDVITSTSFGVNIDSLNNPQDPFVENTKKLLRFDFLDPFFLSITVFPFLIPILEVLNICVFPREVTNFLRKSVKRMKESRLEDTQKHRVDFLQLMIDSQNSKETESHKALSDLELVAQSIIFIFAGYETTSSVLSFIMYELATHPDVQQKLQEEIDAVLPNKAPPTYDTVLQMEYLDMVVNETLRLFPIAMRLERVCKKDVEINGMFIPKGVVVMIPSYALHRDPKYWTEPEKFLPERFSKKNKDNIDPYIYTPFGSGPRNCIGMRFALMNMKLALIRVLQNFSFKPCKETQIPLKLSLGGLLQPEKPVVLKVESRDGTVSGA
T3 sequence (Q9UM73 19-1620): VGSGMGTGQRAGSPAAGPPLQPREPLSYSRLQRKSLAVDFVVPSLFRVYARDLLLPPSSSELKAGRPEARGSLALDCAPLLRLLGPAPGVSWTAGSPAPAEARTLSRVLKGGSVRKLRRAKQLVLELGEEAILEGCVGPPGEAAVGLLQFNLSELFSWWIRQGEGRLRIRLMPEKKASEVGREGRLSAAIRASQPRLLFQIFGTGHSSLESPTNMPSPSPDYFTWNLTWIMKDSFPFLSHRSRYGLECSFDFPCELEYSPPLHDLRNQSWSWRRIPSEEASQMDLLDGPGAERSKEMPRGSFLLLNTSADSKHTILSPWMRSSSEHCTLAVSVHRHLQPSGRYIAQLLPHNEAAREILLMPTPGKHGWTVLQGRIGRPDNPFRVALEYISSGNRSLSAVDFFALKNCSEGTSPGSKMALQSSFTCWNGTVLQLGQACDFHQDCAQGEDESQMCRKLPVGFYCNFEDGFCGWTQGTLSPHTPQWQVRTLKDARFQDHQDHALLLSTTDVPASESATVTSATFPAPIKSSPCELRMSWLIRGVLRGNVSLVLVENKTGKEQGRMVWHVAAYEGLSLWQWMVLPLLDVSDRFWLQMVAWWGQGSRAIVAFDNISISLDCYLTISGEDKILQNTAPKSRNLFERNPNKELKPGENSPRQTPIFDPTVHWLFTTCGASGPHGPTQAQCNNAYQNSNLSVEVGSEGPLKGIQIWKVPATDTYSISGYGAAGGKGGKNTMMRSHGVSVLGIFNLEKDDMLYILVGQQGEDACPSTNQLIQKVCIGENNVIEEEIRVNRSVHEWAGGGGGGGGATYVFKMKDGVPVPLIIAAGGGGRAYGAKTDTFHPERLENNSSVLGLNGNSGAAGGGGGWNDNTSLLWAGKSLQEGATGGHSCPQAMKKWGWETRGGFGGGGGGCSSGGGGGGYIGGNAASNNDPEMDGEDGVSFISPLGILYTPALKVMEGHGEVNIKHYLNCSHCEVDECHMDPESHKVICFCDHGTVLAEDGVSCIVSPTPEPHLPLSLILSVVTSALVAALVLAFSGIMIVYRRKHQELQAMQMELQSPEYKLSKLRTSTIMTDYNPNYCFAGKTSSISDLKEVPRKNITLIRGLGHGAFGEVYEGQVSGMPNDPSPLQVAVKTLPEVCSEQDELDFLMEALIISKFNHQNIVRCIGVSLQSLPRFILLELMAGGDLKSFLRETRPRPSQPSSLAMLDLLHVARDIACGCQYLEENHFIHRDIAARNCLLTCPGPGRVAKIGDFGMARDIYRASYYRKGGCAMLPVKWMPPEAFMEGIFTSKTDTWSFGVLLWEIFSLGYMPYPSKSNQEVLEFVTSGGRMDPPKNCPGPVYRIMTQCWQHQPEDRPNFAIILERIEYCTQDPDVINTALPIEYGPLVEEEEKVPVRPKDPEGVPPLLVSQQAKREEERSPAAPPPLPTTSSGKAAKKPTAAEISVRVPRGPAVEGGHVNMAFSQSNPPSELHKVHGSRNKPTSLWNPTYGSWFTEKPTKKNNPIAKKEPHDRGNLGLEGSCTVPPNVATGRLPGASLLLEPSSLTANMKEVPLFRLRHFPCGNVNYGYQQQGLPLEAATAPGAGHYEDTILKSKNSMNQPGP
T1 sequence (Q9UM73 19-1620 L1196M): as the sequence (Q9UM73 19-1620) above, with L1178M counted along it

In the case of `CC(C)S(=O)(=O)c1nn(C)cc1Nc1nc(Nc2cc(F)c(C3CCN(C)CC3)cc2OC2CC2)ncc1Cl` [Final product 44], the IC50 in assay [1] is 4 nM; in [2] it was more than 10000 nM; in [3], more than 10000 nM; in [4] it was more than 10000 nM; in assay [5], 3 nM; in [6] it was more than 10000 nM. The IC50 in [7] is more than 10000 nM.
On to `Cc1cc(Nc2ncc(Cl)c(Nc3cn(C)nc3S(=O)(=O)C(C)C)n2)c(OC2CC2)cc1C1CCN(C)CC1` [Final product 51], for which the 50% inhibitory concentration (IC50) in assay [1] was 4 nM; in assay [2], more than 10000 nM; in [3], more than 10000 nM; in assay [4], more than 10000 nM; in assay [5], 2 nM; in assay [6], more than 10000 nM. Further, the IC50 in [7] is more than 10000 nM.
`COC1CN(C)CCC1c1cc(OC2CC2)c(Nc2ncc(Cl)c(Nc3cn(C)nc3S(=O)(=O)CC(C)C)n2)cc1C` (centres unmarked) [Final product 59]: the concentration for half-maximal inhibition (IC50) in assay [8] stood at 156 nM; in [9] it was 52 nM.
With `Cc1cc(Nc2ncc(Cl)c(Nc3cn(C)nc3S(=O)(=O)C(C)C)n2)c(OC2CC2)cc1C1CCCN(C)C1` (centres unmarked) [Final product 60], the half-maximal inhibitory concentration (IC50) in [8] is 28 nM; in [2], more than 10000 nM; in [3], more than 10000 nM; in assay [4], more than 10000 nM; in [6] it was more than 10000 nM; in assay [7], more than 10000 nM.
As to `Cc1cc(Nc2ncc(Cl)c(Nc3cn(C)nc3S(=O)(=O)C(C)C)n2)c(OC(C)C)cc1C1CCN(C)CC1` [Final product 80], the IC50 in assay [1] was 8 nM; in [2], more than 10000 nM; in [3] it was more than 10000 nM; in assay [4], more than 10000 nM; in assay [5], 4 nM; in [6], more than 10000 nM. In assay [7], this compound returned an IC50 of more than 10000 nM.
In the case of `COCCN1CCC(c2cc(OC3CC3)c(Nc3ncc(Cl)c(Nc4cn(C)nc4S(=O)(=O)CC(C)C)n3)cc2C)CC1` [Final product 83], the 50% inhibitory concentration (IC50) in [8] came to 53 nM; in assay [9], 11 nM.
With `Cc1cc(Nc2ncc(Cl)c(Nc3cn(C)nc3S(=O)(=O)C(C)C)n2)c(OC(C)C)cc1C1CC(C)N(C)C(C)C1` (centres unmarked) [Final product 97], the half-maximal inhibitory concentration (IC50) was 154 nM in assay [8]; more than 10000 nM in assay [2]; more than 10000 nM in [3]; more than 10000 nM in assay [4]; more than 10000 nM in assay [6]; more than 10000 nM in assay [7].
For the compound `Cc1cc(Nc2ncc(Cl)c(Nc3cn(C)nc3S(=O)(=O)C(C)C)n2)c(OC2CC2)cc1C1CCN(C)C(C)(C)C1` (centres unmarked) [Final product 100], the 50% inhibitory concentration (IC50) is 61 nM in assay [8] and 6 nM in assay [9].
The corresponding values for `Cc1cc(Nc2ncc(Cl)c(Nc3cn(C)nc3S(=O)(=O)C(C)C)n2)c(OC2CC2)cc1C1CCN(C)C(=O)C1` (centres unmarked) [Final product 103] are 66 nM and 10 nM.
Consider `Cc1cc(Nc2ncc(Cl)c(Nc3cn(C)nc3S(=O)(=O)C(C)C)n2)c(OC2CC2)cc1C1CCC(N2CCN(C)CC2)CC1` (centres unmarked) [Final product 202], for which the half-maximal inhibitory concentration (IC50) in assay [8] is 141 nM; in assay [2] it was more than 10000 nM; in assay [3], more than 10000 nM; in assay [4], more than 10000 nM; in assay [6] it was more than 10000 nM; in assay [7], more than 10000 nM.

As usually defined, the IC50 is the concentration at which inhibition is half-maximal.
